According to patent US10722496B2, “2-iminobiotin for use in the treatment of brain cell injury” (Neurophyxia B.V., priority 2015, dated 2020):

Experiments:
IMR-32 cells [1] = experiment: Nitrate/nitrite Griess assay in culture media; assay type: cell-based, human; conditions: data not shown
Method: (§1) In vitro hypoxia was induced in the cell cultures by using our recently described system with minor modifications (Huang et al., 2013b; Weber et al., 2015; Zitta et al., 2010). Enzyme stock solutions (100×) of catalase and glucose oxidase (both from Sigma-Aldrich) were prepared in cell culture medium (DMEM/F12, 1% FCS; final concentration: 120 U/ml and 2 U/ml respectively; Sigma-Aldrich) leading to a decrease of partial pressure of oxygen (pO2) below 10 mmHg within 5 minutes. Hypoxic conditions were confirmed by using a tissue oxygen pressure monitor (LICOX® CMP Oxygen Catheter; Integra, Plainsboro, USA). After 7 hours of hypoxia, the cells were washed twice with PBS (PAA) and fresh normoxic medium supplemented with solvent (citrate buffer 1%) or 2-IB (10, 30, 50, 100 and 300 ng/mL) was added to the cells. Investigations of cell damage, metabolic activity, ROS, hydrogen peroxide, nitrite/nitrate production, erkl/2, akt and stat5 phosphorylation as well as cell stress protein expression were performed with cell culture media or cell protein (FIG. 1).
Nitrate and nitrite concentrations were evaluated in culture media using a Griess colorimetric assay kit (Sigma-Aldrich) according to the manufacturer's instructions. Absorbance at 540 nm was measured in samples and standards using an ELISA reader (Tecan, Crailsheim, Germany).

IMR-32 cells [2] = experiment: LDH cytotoxicity assay, hypoxia-induced cell damage; assay type: cell-based, human
Method: as §1
The release of LDH from cultured cells into the medium was quantified by using a colorimetric cytotoxicity detection kit (Roche, Mannheim, Germany). Samples were prepared based on the manufacturer's protocol. Briefly, culture media were collected 24 hours after hypoxia and stored at −20° C. For evaluation of total LDH, cells were lysed with 2% TRITON® X-100 (Carl Roth, Karlsruhe, Germany) for 15 minutes at 37° C. LDH activity of the samples was measured in 96-well plates at 490 nm using an ELISA reader (Tecan, Crailsheim, Austria) in combination with the Magellan software v1.1.

4VO rat model = experiment: Histology, living neurons in CA1 region of hippocampus after 4VO; assay type: in vivo; conditions: 33 days after insult
Method: The rats were anesthetized using ketamine (90 mg/kg) and xylazine sodium ([…]), as described earlier (Meilin et al., 2014). The first cervical vertebrata was exposed and the vertebral arteries were permanently occluded by electrocauterization. The common carotid arteries were isolated through a ventral midline neck incision and lifted using a 4.0 silk suture ligature, placed around them.
Twenty-four hours post vertebral arterial occlusion, the animals were reanesthetized using isoflurane. The common carotid arteries were exposed and occluded using microaneurysm clips for 15 minutes. After removing the clips reperfusion occurred. The skin of the incision at the neck was sutured using 4-0 silk suture. During the operation animal's core temperature was monitored using a rectal probe (Model 400; YSI Inc., Yellow Springs, Ohio, USA) connected to a thermometer (Model 8402-00; Cole-Parmer Instrument Co. Ltd, London, UK). The ischemic insult was initiated when a rectal temperature of 37-38° C. was achieved, and this temperature was maintained throughout the procedure using a heating mattress.
During the acclimatization period rats were randomly assigned to experimental groups. The animals were subjected to 4VO per cage or one rat per cage was subjected to HI. Rats received either vehicle (normal saline at pH 3.8-4.0) or 2-IB (1.1 mg/kg, 3.3 mg/kg, 10 mg/kg and 30 mg/kg dissolved in 5 ml/kg normal saline at pH 3.8-4.0). Each dosing group was kept in separate cages to avoid cross-contamination by consuming stools during the study period. The experimental groups were as follows.
Rats were sacrificed at 33 days after the insult with an overdose of pentobarbital sodium (100 mg/kg i.p.). Histological analysis was performed in at least 9 rats for each group. The brains of the other 3 rats per group were snap frozen in liquid nitrogen and were stored for future analysis. The brain was perfused via the left ventricle with heparinised normal saline to remove the excess of blood from the brain. Afterwards the brain was perfused with 4% paraformaldehyde phosphate-buffered saline. The whole brain was removed and immersed in formaldehyde for at least another 72 hours. Brains were embedded in paraffin. Coronal sections ([…]) were cut at approximately 3.3 mm from the bregma and stained with hematoxylin-eosin. Sections were scored in a blinded way for living neurons in the right and left part of the CA1 region of the hippocampus, the most damaged area in this model of global ischemia. This was also considered a secondary outcome parameter.

[3] = Toxicokinetics, repeated i.v. pulse infusions to adult rats; assay type: in vivo, rat; conditions: for mean AUC 0-4-hour: 6.6 mg/kg per 15-minute i.v. pulse, first and last pulse
Method: The toxicokinetics of 2-IB was studied over a 96-hour period by i.v. pulse infusions to adult rats. The purpose of this study was to generate toxicokinetic parameters (Cmax, tmax, AUC, t1/2) from 2-IB plasma concentrations in male and female rats after repeated i.v. infusion.
Group 1 received vehicle only. Systemic exposure was monitored on day 0 and day 4. Blood sampling was conducted at 15 minutes and 0.5, 1 and 4 hours after the first infusion, and 15 minutes and 0.5, 1, 4, 8 and 24 hours following the last dose.

N=C1N[C@H]2[C@H](CS[C@H]2CCCCC(=O)O)N1 [2-IB, 2-iminobiotin]
nitrate and nitrite concentrations in culture media (IMR-32 cells [1]): neither nitrate nor nitrite concentrations were influenced by hypoxia or by 2-IB
LDH/total LDH (IMR-32 cells [2]; 30 ng/ml 2-IB, hypoxia): 0.13±0.02
LDH/total LDH (IMR-32 cells [2]; 30 ng/ml 2-IB, normoxia): 0.11±0.03
LDH/total LDH (IMR-32 cells [2]; 50 ng/ml 2-IB, hypoxia): 0.14±0.04
LDH/total LDH (IMR-32 cells [2]; 50 ng/ml 2-IB, normoxia): 0.14±0.04
LDH/total LDH (IMR-32 cells [2]; 100 ng/ml 2-IB, hypoxia): 0.15±0.03
LDH/total LDH (IMR-32 cells [2]; 100 ng/ml 2-IB, normoxia): 0.10±0.02
LDH/total LDH (IMR-32 cells [2]; 300 ng/ml 2-IB, hypoxia): 0.20±0.06
LDH/total LDH (IMR-32 cells [2]; 300 ng/ml 2-IB, normoxia): 0.10±0.02
reduction of hypoxia-induced cell damage, most effective concentrations (IMR-32 cells [2]; 10-300 ng/ml tested, P<0.05 vs. control): 30 and 50 ng/ml 2-IB were the most effective concentrations
surviving cells in the CA1 region (4VO rat model; 1.1 mg/kg/dose s.c.): 29±34
surviving cells in the CA1 region (4VO rat model; 3.3 mg/kg/dose s.c.): 71±61
surviving cells in the CA1 region (4VO rat model; 10 mg/kg/dose s.c.): 63±54
surviving cells in the CA1 region (4VO rat model; 30 mg/kg/dose s.c.): 50±51
mean AUC 0-4-hour ([3]; 1st of four values printed for male and female rats): 2.31 µg·h/mL
mean AUC 0-4-hour ([3]; 2nd of four values printed for male and female rats): 2.53 µg·h/mL
mean AUC 0-4-hour ([3]; 3rd of four values printed for male and female rats): 1.75 µg·h/mL
mean AUC 0-4-hour ([3]; 4th of four values printed for male and female rats): 1.95 µg·h/mL
overall mean AUC 0-4-hour ([3]; 6.6 mg/kg per pulse, across sexes and first and last pulses): about 2135 ng·h/mL
AUC expected ([3]; rat, 3.3 mg/kg dose level, assuming linear PK): about 1068 ng·h/mL
